Source: patent US20110263629A1, “AMIDES OF DIAZABICYCLOOCTANES AND USES THEREOF” (Targacept, Inc., priority 2008, published 2011)
Where two headings read alike, the source gives them in different places.

Legend:
[1] = target: T1, rat α4β2 nAChR subtype (Rattus norvegicus, UniProt P09483+P12390); test: Radioligand binding ([3H]nicotine) at rat α4β2 nAChR, rat cortex membranes
T1 construct: Preparation of membranes from rat cortex; from tissue; host or cells: rat cerebral cortex membranes
Method: (§1) Preparation of membranes from rat cortex: Rats (female, Sprague-Dawley), weighing 150-250 g, were maintained on a 12 h light/dark cycle and were allowed free access to water and food supplied by PMI Nutrition International, Inc. Animals were anesthetized with 70% CO2, and then decapitated. Brains were removed and placed on an ice-cold platform. The cerebral cortex was removed and placed in 20 volumes (weight:volume) of ice-cold preparative buffer (137 mM NaCl, 10.7 mM KCl, 5.8 mM KH2PO4, 8 mM Na2HPO4, 20 mM HEPES (free acid), 5 mM iodoacetamide, 1.6 mM EDTA, pH 7.4); PMSF, dissolved in methanol to a final concentration of 100 μM, was added and the suspension was homogenized by Polytron. The homogenate was centrifuged at 18,000×g for 20 min at 4° C. and the resulting pellet was re-suspended in 20 volumes of ice-cold water. After 60 min incubation on ice, a new pellet was collected by centrifugation at 18,000×g for 20 min at 4° C. The final pellet was re-suspended in 10 volumes of buffer and stored at −20° C.
(§2) On the day of the assay, the frozen membranes were thawed and spun at 48,000×g for 20 min. The supernatant was decanted and discarded. The pellet was resuspended in Dulbecco's phosphate buffered saline (PBS, Life Technologies) pH 7.4 and homogenized with the Polytron for 6 seconds. Protein concentrations were determined using a Pierce BCA Protein Assay Kit, with bovine serum albumin as the standard (Pierce Chemical Company, Rockford, Ill.).
(§3) Incubation was terminated by rapid filtration on a multi-manifold tissue harvester (Brandel, Gaithersburg, Md.) using GF/B filters presoaked in 0.33% polyethyleneimine (w/v) to reduce non-specific binding. Tissue was rinsed 3 times in PBS, pH 7.4. Scintillation fluid was added to filters containing the washed tissue and allowed to equilibrate. Filters were then counted to determine radioactivity bound to the membranes by liquid scintillation counting (2200CA Tri-Carb LSC, Packard Instruments, 50% efficiency or Wallac Trilux 1450 MicroBeta, 40% efficiency, Perkin Elmer).
(§4) Data were expressed as disintegrations per minute (DPMs). Within each assay, each point had 2-3 replicates. The replicates for each point were averaged and plotted against the log of the drug concentration. IC50, which is the concentration of the compound that produces 50% inhibition of binding, was determined by least squares non-linear regression. Ki values were calculated using the Cheng-Prussof equation (1973): […]

[2] = target: T2, human α4β2 nAChR subtype (Homo sapiens, UniProt P17787+P43681); test: Radioligand binding ([3H]nicotine) at human α4β2 nAChR, SH-EP1/human α4β2 clonal cell membranes
T2 construct: expressed in transfected cells; host or cells: SH-EP1 clonal cells expressing human α4β2
T2 sequence (P43681 29-627 limits assumed): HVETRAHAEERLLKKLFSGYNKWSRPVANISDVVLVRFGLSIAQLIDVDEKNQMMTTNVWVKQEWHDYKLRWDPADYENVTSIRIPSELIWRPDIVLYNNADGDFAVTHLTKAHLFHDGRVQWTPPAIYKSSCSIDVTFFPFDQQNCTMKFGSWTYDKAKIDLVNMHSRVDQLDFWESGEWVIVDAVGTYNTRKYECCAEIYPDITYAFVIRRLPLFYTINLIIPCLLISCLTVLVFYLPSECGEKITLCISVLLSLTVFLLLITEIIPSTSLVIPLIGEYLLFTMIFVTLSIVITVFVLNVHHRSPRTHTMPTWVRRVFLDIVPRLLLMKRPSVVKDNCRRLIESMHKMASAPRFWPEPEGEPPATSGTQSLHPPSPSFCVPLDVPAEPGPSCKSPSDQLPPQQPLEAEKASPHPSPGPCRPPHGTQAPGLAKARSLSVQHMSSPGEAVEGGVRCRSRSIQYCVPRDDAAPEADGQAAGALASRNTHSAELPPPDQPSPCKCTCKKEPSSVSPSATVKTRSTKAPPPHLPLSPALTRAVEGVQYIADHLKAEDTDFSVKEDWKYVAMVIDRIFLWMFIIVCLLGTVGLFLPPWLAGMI
T2 sequence (P17787 26-502): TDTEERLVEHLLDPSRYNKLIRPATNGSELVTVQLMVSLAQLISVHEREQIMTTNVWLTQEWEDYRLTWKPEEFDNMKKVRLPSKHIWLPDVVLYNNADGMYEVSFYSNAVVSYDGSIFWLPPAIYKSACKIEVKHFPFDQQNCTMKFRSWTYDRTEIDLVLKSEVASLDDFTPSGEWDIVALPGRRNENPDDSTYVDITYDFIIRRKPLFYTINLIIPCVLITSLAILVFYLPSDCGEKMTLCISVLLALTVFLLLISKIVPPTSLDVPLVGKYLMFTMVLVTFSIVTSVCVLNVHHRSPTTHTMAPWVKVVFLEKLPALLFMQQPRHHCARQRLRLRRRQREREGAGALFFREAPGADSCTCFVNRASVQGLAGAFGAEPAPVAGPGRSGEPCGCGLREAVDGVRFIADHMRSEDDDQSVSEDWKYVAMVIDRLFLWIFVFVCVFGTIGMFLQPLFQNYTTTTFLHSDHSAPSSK
Method: Preparation of membranes from SH-EP1/human α4β2 clonal cells: Cell pellets from 40 150 mm culture dishes were pooled, and homogenized by Polytron (Kinematica GmbH, Switzerland) in 20 milliliters of ice-cold preparative buffer. The homogenate was centrifuged at 48,000 g for 20 minutes at 4° C. The resulting pellet was re-suspended in 20 mL of ice-cold preparative buffer and stored at −20° C.
as §2, §3, §4

[3] = target: T3, rat α7 nAChR subtype (Rattus norvegicus, UniProt Q05941); test: Radioligand binding ([3H]MLA) at α7 nAChR, rat hippocampus membranes
T3 construct: Preparation of membranes from rat hippocampus; from tissue; host or cells: rat hippocampus membranes
T3 sequence (Q05941 23-502): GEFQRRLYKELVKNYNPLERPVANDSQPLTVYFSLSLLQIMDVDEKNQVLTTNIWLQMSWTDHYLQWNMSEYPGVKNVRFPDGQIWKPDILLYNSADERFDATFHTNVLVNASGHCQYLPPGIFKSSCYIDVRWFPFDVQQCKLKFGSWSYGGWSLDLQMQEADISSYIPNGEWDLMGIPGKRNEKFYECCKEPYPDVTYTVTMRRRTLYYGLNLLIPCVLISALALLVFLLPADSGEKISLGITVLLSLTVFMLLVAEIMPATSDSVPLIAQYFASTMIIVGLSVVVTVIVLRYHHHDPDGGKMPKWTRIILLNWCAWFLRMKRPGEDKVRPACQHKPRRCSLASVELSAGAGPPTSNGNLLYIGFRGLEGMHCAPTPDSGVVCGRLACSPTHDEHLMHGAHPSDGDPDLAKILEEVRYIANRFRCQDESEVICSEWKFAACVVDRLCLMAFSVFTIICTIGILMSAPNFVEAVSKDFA
Method: as §1, with “from rat hippocampus: Rats (female,” for “from rat cortex: Rats (female,”, “70% CO2, then decapitated.” for “70% CO2, and then decapitated.”, “platform. The hippocampus was removed” for “platform. The cerebral cortex was removed”, “placed in 10 volumes (weight:volume)” for “placed in 20 volumes (weight:volume)”, “and the tissue suspension was” for “and the suspension was”, “re-suspended in 10 volumes of” for “re-suspended in 20 volumes of”
On the day of the assay, tissue was thawed, centrifuged at 18,000×g for 20 min, and then re-suspended in ice-cold PBS (Dulbecco's Phosphate Buffered Saline, 138 mM NaCl, 2.67 mM KCl, 1.47 mM KH2PO4, 8.1 mM Na2HPO4, 0.9 mM CaCl2, 0.5 mM MgCl2, Invitrogen/Gibco, pH 7.4) to a final concentration of approximately 2 mg protein/mL. Protein was determined by the method of Lowry et al., J. Biol. Chem. 193: 265 (1951), herein incorporated by reference, using bovine serum albumin as the standard.
Assay: The binding of [^3H]MLA was measured using a modification of the methods of Davies et al., Neuropharmacol. 38: 679 (1999), herein incorporated by reference. [^3H]MLA (Specific Activity=25-35 Ci/mmol) was obtained from Tocris. The binding of [^3H]MLA was determined using a 2 h incubation at 21° C. Incubations were conducted in 48-well micro-titre plates and contained about 200 μg of protein per well in a final incubation volume of 300 μL. The incubation buffer was PBS and the final concentration of [^3H]MLA was 5 nM. The binding reaction was terminated by filtration of the protein containing bound ligand onto glass fiber filters (GF/B, Brandel) using a Brandel Tissue Harvester at room temperature. Filters were soaked in de-ionized water containing 0.33% polyethyleneimine to reduce non-specific binding. Each filter was washed with PBS (3×1 mL) at room temperature. Non-specific binding was determined by inclusion of 50 μM non-radioactive MLA in selected wells.
The inhibition of [^3H]MLA binding by test compounds was determined by including seven different concentrations of the test compound in selected wells. Each concentration was replicated in triplicate. IC50 values were estimated as the concentration of compound that inhibited 50 percent of specific [^3H]MLA binding. Inhibition constants (Ki values), reported in nM, were calculated from the IC50 values using the method of Cheng et al., Biochem. Pharmacol. 22: 3099-3108 (1973), herein incorporated by reference.

[4] = rat cortex membranes, 5 nM [3H]nicotine, read-out: Rat α4β2 Ki
[5] = SH-EP1/human α4β2 cell membranes, 5 nM [3H]nicotine, read-out: Human α4β2 Ki
[6] = rat hippocampus membranes, 5 nM [3H]MLA, read-out: Rat α7 Ki

T1 sequence (P09483 31-630): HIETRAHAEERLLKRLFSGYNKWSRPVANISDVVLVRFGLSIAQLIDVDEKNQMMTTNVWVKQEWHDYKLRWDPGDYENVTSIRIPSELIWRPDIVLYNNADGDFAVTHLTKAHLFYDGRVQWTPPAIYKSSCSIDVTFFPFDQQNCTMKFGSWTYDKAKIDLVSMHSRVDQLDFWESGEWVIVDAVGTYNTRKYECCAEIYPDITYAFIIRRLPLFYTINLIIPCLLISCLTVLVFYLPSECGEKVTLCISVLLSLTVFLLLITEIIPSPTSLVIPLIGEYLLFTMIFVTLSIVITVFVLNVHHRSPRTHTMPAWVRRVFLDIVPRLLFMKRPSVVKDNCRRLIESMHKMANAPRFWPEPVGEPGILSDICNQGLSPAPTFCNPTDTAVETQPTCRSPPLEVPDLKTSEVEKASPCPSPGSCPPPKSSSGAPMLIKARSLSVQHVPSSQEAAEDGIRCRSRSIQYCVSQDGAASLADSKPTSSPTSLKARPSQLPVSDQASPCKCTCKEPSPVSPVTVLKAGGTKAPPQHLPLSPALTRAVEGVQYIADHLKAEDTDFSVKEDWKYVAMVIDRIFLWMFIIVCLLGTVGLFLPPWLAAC
T1 sequence (P12390 25-500): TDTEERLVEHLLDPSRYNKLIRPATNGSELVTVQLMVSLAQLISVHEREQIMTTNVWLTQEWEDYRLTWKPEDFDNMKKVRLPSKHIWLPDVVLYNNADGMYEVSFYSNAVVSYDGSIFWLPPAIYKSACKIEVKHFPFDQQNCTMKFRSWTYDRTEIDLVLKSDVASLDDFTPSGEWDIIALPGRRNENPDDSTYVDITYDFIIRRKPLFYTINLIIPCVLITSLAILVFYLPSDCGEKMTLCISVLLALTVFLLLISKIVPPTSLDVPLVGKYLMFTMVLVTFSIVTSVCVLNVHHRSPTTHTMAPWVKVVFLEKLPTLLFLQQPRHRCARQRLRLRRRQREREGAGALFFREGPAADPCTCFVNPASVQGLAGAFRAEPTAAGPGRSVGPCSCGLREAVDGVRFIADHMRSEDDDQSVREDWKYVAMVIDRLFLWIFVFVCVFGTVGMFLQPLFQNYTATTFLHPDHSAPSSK

| Compound | Ki ([1]; read-out: Rat α4β2 Ki) | Ki ([2]; read-out: Human α4β2 Ki) | further results |
| --- | --- | --- | --- |
| O=C(C1C[C@@H]1F)N1CC2CNC(C2)C1 (stereo partly drawn) | 22 nM | 14 nM | Ki [3]: 260 nM |
| COCCOC(=O)N1C[C@@H]2CN[C@@H](C2)C1 |  |  | Ki [1, 4]: 1000 nM; Ki [2, 5]: 580 nM |
| CCCOC(=O)N1C[C@@H]2CN[C@@H](C2)C1 | 43 nM | 94 nM |  |
| O=C(C1CCOC1)N1C[C@@H]2CN[C@@H](C2)C1 (stereo partly drawn) |  | 46 nM | Ki [1, 4]: 140 nM |
| O=C(C1CCC1)N1C[C@H]2CN[C@H](C2)C1 | 2.2 nM | 1.6 nM | Ki [3]: 440 nM |
| CCS(=O)(=O)N1C[C@@H]2CN[C@@H](C2)C1 |  | 1200 nM |  |
| O=C(C1CC1)N1CC2CNC(C2)C1 (stereo not drawn) | 1.3 nM | 1.5 nM | Ki [3, 6]: 290 nM |
| CC(C)OC(=O)N1C[C@@H]2CN[C@@H](C2)C1 |  |  | Ki [1, 4]: 970 nM; Ki [2, 5]: 560 nM |
| CC(=O)N1C[C@@H]2CN[C@@H](C2)C1 |  |  | Ki [1, 4]: 580 nM; Ki [2, 5]: 730 nM |
| CCOC(=O)N1C[C@@H]2CN[C@@H](C2)C1 | 25 nM | 49 nM |  |
| CCOC(=O)N1C[C@H]2CN[C@H](C2)C1 | 11 nM | 15 nM | Ki [3]: 4200 nM |
| COC(=O)N1CC2CNC(C2)C1 (stereo not drawn) | 6.8 nM | 12 nM |  |
| CC(C)(C)C(=O)N1C[C@H]2CN[C@H](C2)C1 | 68 nM | 26 nM |  |
| CCNC(=O)N1C[C@@H]2CN[C@@H](C2)C1 | 160 nM | 560 nM |  |
| CC1CC1C(=O)N1C[C@@H]2CN[C@@H](C2)C1 (stereo partly drawn) | 4.8 nM | 6.8 nM | Ki [3]: 460 nM |
| CC(=O)N1C[C@@H]2CNC[C@H]1C2 |  | 1300 nM |  |
| CCCC(=O)N1C[C@@H]2CNC[C@H]1C2 |  | 34 nM |  |
| COC(=O)N1C[C@@H]2CN[C@@H](C2)C1 | 100 nM |  | Ki [2, 5]: 120 nM |
| CC(C)CC(=O)N1C[C@@H]2CN[C@@H](C2)C1 | 320 nM | 350 nM |  |
| C=CCNC(=S)N1C[C@@H]2CN[C@@H](C2)C1 | 9900 nM | > 10000 nM |  |
| O=C(C1CCC1)N1C[C@@H]2CNC[C@H]1C2 |  | 23 nM |  |
| CN1C[C@H]2C[C@@H]1CN(C(=O)C1CC1)C2 | 19 nM | 18 nM |  |
| COc1ccc(S(=O)(=O)N2C[C@@H]3CN[C@@H](C3)C2)cc1 | 750 nM | 580 nM |  |
| COC(=O)N1C[C@H]2CN[C@H](C2)C1 | 4.8 nM | 7.9 nM |  |
| COC(=O)N1C[C@H]2CNC[C@@H]1C2 |  |  | Ki [2, 5]: 5700 nM |
| CS(=O)(=O)N1C[C@@H]2CN[C@@H](C2)C1 |  | 2300 nM |  |
| CC1(C)C(C(=O)N2CC3CNC(C3)C2)C1(C)C (stereo not drawn) |  | 8600 nM |  |

| Compound | Ki ([1]; read-out: Rat α4β2 Ki) | Ki ([2]; read-out: Human α4β2 Ki) | further results |
| --- | --- | --- | --- |
| C/C=C/CC(=O)N1C[C@@H]2CN[C@@H](C2)C1 | 180 nM | 220 nM |  |
| O=C([C@H]1C[C@H]1F)N1C[C@@H]2CNC[C@H]1C2 | 2.9 nM | 3.7 nM |  |
| O=C([C@@H]1C[C@H]1F)N1C[C@H]2CNC[C@@H]1C2 |  | 230 nM |  |
| O=C([C@H]1C[C@@H]1F)N1C[C@@H]2CNC[C@H]1C2 |  | 11 nM |  |
| C=CCNC(=O)N1C[C@@H]2CN[C@@H](C2)C1 | 130 nM | 910 nM |  |
| CC1(C)CC1C(=O)N1C[C@@H]2CN[C@@H](C2)C1 (stereo partly drawn) | 49 nM | 31 nM |  |
| CCC(=O)N1C[C@@H]2CNC[C@H]1C2 |  | 27 nM |  |
| CCCCC(=O)N1C[C@@H]2CN[C@@H](C2)C1 | 36 nM | 77 nM |  |
| O=C(CC(F)(F)F)N1C[C@@H]2CN[C@@H](C2)C1 |  | 73 nM | Ki [1, 4]: 110 nM |
| COCCOC(=O)N1C[C@H]2CN[C@H](C2)C1 | 74 nM |  | Ki [2, 5]: 310 nM |
| O=C(C1CC12CCC2)N1C[C@@H]2CN[C@@H](C2)C1 (stereo partly drawn) | 3 nM | 2.3 nM |  |
| CCCS(=O)(=O)N1C[C@@H]2CN[C@@H](C2)C1 |  | 2800 nM |  |
| CCCCS(=O)(=O)N1C[C@@H]2CN[C@@H](C2)C1 |  | 2100 nM |  |
| CC(C)C(=O)N1C[C@@H]2CNC[C@H]1C2 |  | 590 nM |  |
| CC(=O)N1C[C@H]2CN[C@H](C2)C1 | 14 nM | 34 nM |  |
| CC(C)OC(=O)N1C[C@H]2CN[C@H](C2)C1 | 24 nM | 44 nM |  |
| O=C(C1CC1)C1N[C@H]2CNC[C@@H]1C2 (stereo partly drawn) |  | 480 nM | Ki [3]: 1300 nM |
| O=C(Oc1ccc(F)cc1)N1C[C@H]2CN[C@H](C2)C1 |  |  | Ki [1]: 45 nM; Ki [2]: 310 nM |
| O=C(C1CC1)N1C[C@@H]2CNC[C@H]1C2 | 7 nM | 4 nM |  |
| CCOC(=O)N1C[C@H]2CNC[C@@H]1C2 |  | 1400 nM |  |
| O=C(C1CC1)N1CC2CNCC1C2 (stereo not drawn) | 5.6 nM | 3.4 nM |  |
| CC(C)C(=O)N1C[C@H]2CNC[C@@H]1C2 |  | 770 nM | Ki [3, 6]: 890 nM |
| O=C(C1CCC1)N1C[C@H]2CNC[C@@H]1C2 |  | 180 nM | Ki [3]: 1500 nM |
| COC(=O)N1C[C@@H]2CNC[C@H]1C2 | 40 nM | 86 nM |  |
| CC(C)S(=O)(=O)N1C[C@@H]2CN[C@@H](C2)C1 |  | 16 nM | Ki [1, 4]: 750 nM |
| O=C(Nc1ccc(F)cc1)N1C[C@@H]2CN[C@@H](C2)C1 | 2200 nM | > 10000 nM |  |
| O=C(CCF)N1C[C@H]2CNC[C@@H]1C2 |  | 2400 nM | Ki [3, 6]: 2300 nM |
